Measurements published in patent US10391115B2, “Anticancer adjuvant composition containing RIP3 expression promoter as active ingredient, method for screening for anticancer adjuvant enhancing sensitivity of anticancer drug by promoting RIP3 expression, and method for monitoring sensitivity of anticancer drug” (AJOU UNIVERSITY INDUSTRY-ACADEMIC COOPERATION FOUNDATION, priority 2014, dated 2019).

Key:
[1] = tested on: RIP3 expression in cancer cell lines (HeLa, MDA-MB231, BT549); test: RIP3 expression by demethylating agent 5-AD, Western blotting; type: cell-based; details: MDA-MB231, BT549 that express no RIP3, 5-AD 2 uM, treated two times for 4 days
Method: (§1) Cells were lysed in M2 buffer. Equal amounts of cell extracts were analyzed by SDS-PAGE and immunoblotting, and blots were visualized by enhanced chemiluminescence (ECL, Amersham).

[2] = tested on: HeLa cell line (non-target / shRIP3); test: Sensitization by 5-AD plus anticancer drug in non-target and shRIP3 HeLa cell lines (immunoblotting, MTT assay); type: cell-based, human
Method: A MISSION short-hairpin RNA (shRNA) plasmid that targets the coding region or 3′ UTR of hRIP3 mRNA (NM_006871) or a non-target control sequence (NM-027088) were obtained from Sigma-Aldrich. A Lentivirus plasmid was transfected into 293T cells (System Biosciences, LV900A-1) using Lipofectamine 2000 (Invitrogen, 11668019). Pseudoviral particles were collected at 2 days after transfection of the Lentivirus plasmid and infected into various cancer cells in the presence of polybrene (10 μg/mL). At 2 days after infection, infected cells were selected with puromycin, and RIP3 knockdown was confirmed by immunoblotting. Cells without endogenous RIP3 were afterwards treated with 5-AD for 4 days and analyzed by immunoblotting.
Unlike a non-target cell line, in the case of a shRIP3 cell line, RIP3 expression in the cell line was inhibited by shRNA, even though the cell line was treated with 5-AD. Thus, the effect of RIP3 on sensitization of the cell line by a combined treatment with the anticancer drug and the demethylating agent could be confirmed. […] In addition, after the same number of cells seeded, the sensitization effect by the combined treatment with the anticancer drug was analyzed using a cell viability assay (MTT assay) (FIG. 6).
Because the demethylating agent (5-AD or 5-AZA) is not a specific drug for a certain protein, it may cause expression of various proteins in addition to RIP3.

HeLa cell lines = test: Sensitization of cancer cell death by combined treatment with demethylating agent and anticancer drug; details: pretreated two times for 4 days to induce RIP3 expression, then anticancer drug
[3] = tested on: RIP3 expression in DLD-1 colorectal cancer cell line; test: RIP3 expression by demethylating agent 5-AZA, Western blotting; type: cell-based; details: DLD-1 not expressing RIP3; various concentrations of 5-AZA, treated two times for 4 days
Method: as §1

HT-29 cells = test: Viability assay (MTT) of RIP3-silenced HT-29 cells with anticancer drugs; type: cell-based, human; details: doxorubicin 2.5 and 5 uM, etoposide 50 and 100 uM, 48 hours
Method: HT-29 cells (American Tissue Culture Collection) were cultured in a 37° C. incubator using DMEM medium supplemented with penicillin-streptomycin (10 IU/ml) and 10% FBS. The shRNAi double strand used in the present invention was commercially synthesized by Sigma-Aldrich. The shRNA used in the present invention was designed so as to target the coding region of a human RIPK3 mRNA sequence (NCBI Reference sequence NM_006871).
First, cultured HT-29 cells were dispensed in a 35-mm dish at a density of 2×10^5 cells. On the next day, the cells were infected with shRNA particles together with polybrene (10 ug/ml) according to the protocol's instruction.
In the present invention, in order to examine whether the RIP3 gene is associated with anticancer drug sensitivity, HT-29 cells infected with RIP3 shRNA were treated with varying concentrations of doxorubicin and etoposide, and then the cell viability of the cancer cells was measured. Particularly, HT-29 cells infected with RIP3 shRNA were treated with 2.5 uM and 5 uM of doxorubicin and 50 uM and 100 uM of etoposide, and then incubated for 48 hours. After the medium was replaced with a fresh medium containing 0.1 mg of MTT (3-([4,5-dimethylthiazol-2-yl]-2,5-diphenyltetrazolium bromide), the cells were further incubated for 2 hours. Colorimetric analysis was performed on a precipitate obtained by reducing a tetrazolium salt, in which viable cells is dissolved, into purple formazan crystal. Next, the medium was removed, and the produced formazan crystal was dissolved in 500 ul of DMSO, and the absorbance was measured using an ELISA reader at 570 nm. Cell viability was expressed as a percentage relative to the control taken as 100% viability.

T47D breast cancer cells = test: Viability assay (MTT) of RIP3-silenced T47D cells with anticancer drugs; type: cell-based, human; details: 48 hours; for anticancer drug resistance (MTT assay): RIP3-knocked down T47D test group vs control group; for cell killing (MTT assay): control group T47D
Method: In order to examine whether RIP3 also has an effect on breast cancer cells, RIP3-expressing T47D cells were used. First, the cells were infected with RIP3 in the same manner as described in Example 6.
In order to examine whether RIP3 increases anticancer drug sensitivity in T47D breast cancer cells, an MTT assay was performed. A control group and a RIP3-knocked down test group were incubated with doxorubicin, etoposide and taxol at the concentrations shown in FIG. 11 (right) for 48 hours.

[4] = RIP3 knocked down with shRNA HT-29
[5] = control group (non-target shRNA) HT-29

Compound | sensitization to cell death by anticancer drug after demethylating agent pretreatment (HeLa cell lines) | cell viability (MTT) (HT-29 cells; [4]) | cell viability (MTT) (HT-29 cells; [5]) | anticancer drug resistance (MTT assay) (T47D breast cancer cells) | cell killing (MTT assay) (T47D breast cancer cells) | also measured
Nc1ncn([C@H]2C[C@H](O)[C@@H](CO)O2)c(=O)n1 [5-AD, 5-aza-2′-deoxycytidine] | sensitized to anticancer drug | – | – | – | – | RIP3 expression (Western blotting) [1]: RIP3 expression was induced; sensitization of cancer cell death by combined treatment with anticancer drug ([2]; non-target HeLa cell line, 5-AD treated two times for 4 days): showed the effect of sensitizing the cancer cell death by RIP3 expression; sensitization of cancer cell death by combined treatment with anticancer drug (cell viability assay) ([2]; shRIP3 HeLa cell line that expresses no RIP3): the sensitization effect was inhibited; RIP3 expression after 5-AD treatment ([2]; shRIP3 HeLa cell line, 5-AD treated two times for 4 days): RIP3 was not expressed
Nc1ncn([C@@H]2O[C@H](CO)[C@@H](O)[C@H]2O)c(=O)n1 [5-AZA, 5-azacytidine] | the effect of sensitizing the cancer cell line to cell death was obtained | – | – | – | – | RIP3 expression (Western blotting) [3]: RIP3 expression was induced
COc1cccc2c1C(=O)c1c(O)c3c(c(O)c1C2=O)C[C@@](O)(C(=O)CO)C[C@@H]3O[C@H]1C[C@H](N)[C@H](O)[C@H](C)O1 [doxorubicin] | – | the cell viability increased compared to that of the control group | the cell viability decreased dependently on the concentration | significantly increased compared to that of the control group | killed dependently on the concentration | –
COc1cc([C@@H]2c3cc4c(cc3[C@@H](O[C@@H]3O[C@@H]5CO[C@@H](C)O[C@H]5[C@H](O)[C@H]3O)[C@H]3COC(=O)[C@H]23)OCO4)cc(OC)c1O [etoposide] | – | the cell viability increased compared to that of the control group | the cell viability decreased dependently on the concentration | significantly increased compared to that of the control group | killed dependently on the concentration | –
CC(=O)O[C@H]1C(=O)[C@@]2(C)[C@H]([C@H](OC(=O)c3ccccc3)[C@]3(O)C[C@H](OC(=O)[C@H](O)[C@@H](NC(=O)c4ccccc4)c4ccccc4)C(C)=C1C3(C)C)[C@]1(OC(C)=O)CO[C@@H]1C[C@@H]2O [taxol] | – | – | – | significantly increased compared to that of the control group | killed dependently on the concentration | –
